Patent publication US20160228489A1, “PHARMACEUTICAL COMPOSITION FOR THE PREVENTION AND THE TREATMENT OF DEGENERATIVE SKIN DISORDERS ESPECIALLY CAUSED BY IONIZING RADIATIONS” (SOLOSALE S.R.L., priority 2011, published 2016)

Test system: Cultured skin fibroblasts exposed to UV rays
Experiment: cultured skin fibroblasts exposed to UV rays: intracellular GSH and cell survival
Assay type: cell-based
Conditions: for cell survival, % (24 h after end of irradiation) / intracellular GSH, % compared to controls (3 h after incubation): fibroblasts exposed to UV rays, 3 h incubation with formulation containing 100 μM S-acyl-glutathione; for cell survival, % (24 h after end of irradiation): UV without compound 10, unexposed control 100; for intracellular GSH, % compared to controls (3 h after incubation): UV without compound 30, unexposed control 100; for effectiveness for increase of intracellular GSH and of cell survival following exposure to ultraviolet radiation (in words): similar experiments, same concentrations

Compound: CC/C=C\C/C=C\C/C=C\CCCCCCCC(=O)N[C@@H](CCC(=O)N[C@@H](CSC(=O)CCCCCCC/C=C\C/C=C\C/C=C\CC)C(=O)NCC(=O)O)C(=O)O [S,N-di-linolenoyl-S-glutathione]
- cell survival, % (24 h after end of irradiation): 98%
- intracellular GSH, % compared to controls (3 h after incubation): 113%

Compound: Cc1c(C)c2c(c(C)c1O)CCC(C)(C(=O)O)O2 (stereo not shown) [Trolox®, reference compound]
- effectiveness for increase of intracellular GSH and of cell survival following exposure to ultraviolet radiation (in words): did not produce significant effects

Compound: CCCCC/C=C\C/C=C\C/C=C\C/C=C\CCCC(=O)SC[C@H](NC(=O)CC[C@H](N)C(=O)O)C(=O)NCC(=O)O [arachidonoyl-S-glutathione]
- cell survival, % (24 h after end of irradiation): 100%
- intracellular GSH, % compared to controls (3 h after incubation): 115%

Compound: O=C1O[C@H]([C@@H](O)CO)C(O)=C1O [ascorbic acid, reference compound]
- effectiveness for increase of intracellular GSH and of cell survival following exposure to ultraviolet radiation (in words): did not produce significant effects

Compound: CC/C=C\C/C=C\C/C=C\C/C=C\C/C=C\C/C=C\CCC(=O)O [docosahexaenoic acid]
- effectiveness for increase of intracellular GSH and of cell survival following exposure to ultraviolet radiation (in words): results similar to those obtained with linolenic and arachidonic acids

Compound: CC/C=C\C/C=C\C/C=C\C/C=C\C/C=C\CCCC(=O)SC[C@H](NC(=O)CC[C@H](N)C(=O)O)C(=O)NCC(=O)O [eicosapentaenoic acid, eicosapentaenoyl-S-glutathione]
- effectiveness for increase of intracellular GSH and of cell survival following exposure to ultraviolet radiation (in words): results similar to those obtained with linolenic and arachidonic acids

Compound: CC/C=C\C/C=C\C/C=C\CCCCCCCC(=O)SCC(NC(=O)CCC(N)C(=O)O)C(=O)NCC(=O)O (stereo not shown) [linolenoyl-S-glutathione]
- cell survival, % (24 h after end of irradiation): 97%
- intracellular GSH, % compared to controls (3 h after incubation): 115%

Compound: CCCCC/C=C\C/C=C\CCCCCCCC(=O)SC[C@H](NC(=O)CC[C@H](N)C(=O)O)C(=O)NCC(=O)O [linoleyl-S-glutathione]
- cell survival, % (24 h after end of irradiation): 63%
- intracellular GSH, % compared to controls (3 h after incubation): 110%

Compound: CCCCCCCC/C=C\CCCCCCCC(=O)SC[C@H](NC(=O)CC[C@H](N)C(=O)O)C(=O)NCC(=O)O [oleyl-S-glutathione]
- cell survival, % (24 h after end of irradiation): 35%
- intracellular GSH, % compared to controls (3 h after incubation): 85%

Compound: Oc1ccc(C=Cc2cc(O)cc(O)c2)cc1 [resveratrol, reference compound]
- effectiveness for increase of intracellular GSH and of cell survival following exposure to ultraviolet radiation (in words): did not produce significant effects

Compound: vitamin E [reference compound]
- effectiveness for increase of intracellular GSH and of cell survival following exposure to ultraviolet radiation (in words): did not produce significant effects
